Drawing on patent publication US20240239792A1, “MODULATORS OF BCL-2 OR BCL-2/BCL-XL AND USES THEREOF” (APPICINE THERAPEUTICS (HK) LIMITED, priority 2021, published 2024), this text covers IC50 and GI50 for twelve molecules.

The target in one assay is T1, BCL-2 (Homo sapiens, UniProt P10415).
T1 construct: purchased Cisbio 63ADK000CB01PEG
As to the kind of experiment: HTRF BCL-2/BAK assay (Cisbio). To be noted: recombinant human Tag1-BCL-2 2 nM, Tag2-BAK 10 nM. Type of assay: binding. How it is done: (§1) Then the pre-mixed anti-Tag1-Eu^3+ and anti-tag2-XL665 were added to the plate and further incubated at room temperature for another 2 hours. The signals ([…]) were read on Envision 2104 instrument. The IC50 for each compound was derived from fitting the signal of 665/615 nM to the increasing compound concentration.
(§2) Using the above assays, the following compounds were tested.
(TR-FRET usually uses a lanthanide donor and a delayed reading to cut background.)

The target of another assay is T2, BCL-XL (Homo sapiens, UniProt Q07817).
T2 construct: purchased Cisbio 63ADK000CB04PEG
T2 sequence (Q07817 whole entry): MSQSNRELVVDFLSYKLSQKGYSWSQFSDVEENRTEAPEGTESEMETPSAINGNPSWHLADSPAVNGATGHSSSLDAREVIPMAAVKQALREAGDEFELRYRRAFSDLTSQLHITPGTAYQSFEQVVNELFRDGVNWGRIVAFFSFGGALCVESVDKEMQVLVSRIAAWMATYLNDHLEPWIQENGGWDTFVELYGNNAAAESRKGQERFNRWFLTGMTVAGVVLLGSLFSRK
Description: HTRF BCL-XL/BAK assay (Cisbio). It counts as binding. To be noted: recombinant human Tag1-BCL-XL 2 nM, Tag2-BAK 5 nM. The method, then: as §1, §2

For the next assay, the system named is DOHH2 cells. As to the kind of experiment: CellTiter-Glo cell proliferation assay, DOHH2 cells. The conditions noted are these: Homo sapiens, DOHH-2, 72 hours. It counts as cell-based. Summed up: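 DOHH2 cells seeded in DMEM + 10% FBS, exposed to serially diluted compound for 72 h at 37 °C, 5% CO2. Viability read by CellTiter-Glo luminescence; GI50 calculated.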

One may read the IC50 as the concentration at which inhibition is half-maximal. Usually GI50 stands for the concentration giving 50% growth inhibition. A high value points to less potent growth inhibition.

Structures are written as SMILES.

T1 sequence (P10415 whole entry): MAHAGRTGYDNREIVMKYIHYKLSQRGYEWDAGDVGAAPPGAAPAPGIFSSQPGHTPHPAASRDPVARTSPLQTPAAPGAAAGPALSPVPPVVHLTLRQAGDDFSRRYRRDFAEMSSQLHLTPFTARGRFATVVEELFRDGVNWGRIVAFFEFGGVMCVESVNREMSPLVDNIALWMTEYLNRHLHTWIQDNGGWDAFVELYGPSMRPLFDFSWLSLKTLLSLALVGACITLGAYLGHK

As for `O=C(NS(=O)(=O)c1ccc(NCC2CC3(COC3)C2)c([N+](=O)[O-])c1)c1ccc(N2CCN([C@@H]3CCCCc4c(Cl)cccc43)CC2)cc1Oc1cnc2[nH]ccc2c1` [Compound 72, (R)-2-((1H-pyrrolo[2,3-b]pyridin-5-yl)oxy)-N-((4-(((2-oxaspiro[3.3]heptan-6-yl)methyl)amino)-3-nitrophenyl)sulfonyl)-4-(4-(1-chloro-6,7,8,9-tetrahydro-5H-benzo[7]annulen-5-yl)piperazin-1-yl)benzamide], the results for the IC50 at BCL-2 and on BCL-XL were below 20 nM and 20 to 200 nM, respectively. The GI50 in the assay with DOHH2 cells is below 50 nM.
Consider `CN1CC2CC1CC2CNc1ccc(S(=O)(=O)NC(=O)c2ccc(N3CCN(C4CCCCc5c(Cl)cccc54)CC3)cc2Oc2cnc3[nH]ccc3c2)cc1[N+](=O)[O-]` (stereo not drawn) [Compound 44, 2-((1H-pyrrolo[2,3-b]pyridin-5-yl)oxy)-4-(4-(1-chloro-6,7,8,9-tetrahydro-5H-benzo[7]annulen-5-yl)piperazin-1-yl)-N-((4-(((2-methyl-2-azabicyclo[2.2.1]heptan-5-yl)methyl)amino)-3-nitrophenyl)sulfonyl)benzamide], for which the half-inhibitory concentration (IC50) at BCL-2 and on BCL-XL was below 20 nM throughout. The GI50 in the assay with DOHH2 cells lay within 50 to 500 nM.
Regarding `CC(=O)N1CCC2(CC1)CC(CNc1ccc(S(=O)(=O)NC(=O)c3ccc(N4CCN([C@@H]5CCCCc6c(Cl)cccc65)CC4)cc3Oc3cnc4[nH]ccc4c3)cc1[N+](=O)[O-])C2` [Compound 111, (R)-2-((1H-pyrrolo[2,3-b]pyridin-5-yl)oxy)-N-((4-(((7-acetyl-7-azaspiro[3.5]nonan-2-yl)methyl)amino)-3-nitrophenyl)sulfonyl)-4-(4-(1-chloro-6,7,8,9-tetrahydro-5H-benzo[7]annulen-5-yl)piperazin-1-yl)benzamide], the IC50 on BCL-2 is below 20 nM; at BCL-XL it was 20 to 200 nM. The molecule further returned a GI50 in the assay with DOHH2 cells below 50 nM.
In the same order, the values of `Cc1cccc2c1CCCCC2N1CCN(c2ccc(C(=O)NS(=O)(=O)c3ccc(NCC4CCOCC4)c([N+](=O)[O-])c3)c(Oc3cnc4[nH]ccc4c3)c2)CC1` (stereo not drawn) [Compound 20, 2-((1H-pyrrolo[2,3-b]pyridin-5-yl)oxy)-4-(4-(1-methyl-6,7,8,9-tetrahydro-5H-benzo[7]annulen-5-yl)piperazin-1-yl)-N-((3-nitro-4-(((tetrahydro-2H-pyran-4-yl)methyl)amino)phenyl)sulfonyl)benzamide] are below 20 nM, 200 to 2000 nM and 50 to 500 nM.
Take `O=C(NS(=O)(=O)c1ccc(NCC2CCOCC2)c([N+](=O)[O-])c1)c1ccc(N2CCN([C@@H]3CCCCc4c(O)cccc43)CC2)cc1Oc1cnc2[nH]ccc2c1` [Compound 40, (R)-2-((1H-pyrrolo[2,3-b]pyridin-5-yl)oxy)-4-(4-(1-hydroxy-6,7,8,9-tetrahydro-5H-benzo[7]annulen-5-yl)piperazin-1-yl)-N-((3-nitro-4-(((tetrahydro-2H-pyran-4-yl)methyl)amino)phenyl)sulfonyl)benzamide]: the IC50 on BCL-2 was 20 to 200 nM; on BCL-XL, above 2000 nM. This molecule also showed a GI50 with DOHH2 cells of 500 to 5000 nM.
For `CC(C)(C)OC(=O)NCCN1CCC2(CC1)CC(CNc1ccc(S(=O)(=O)NC(=O)c3ccc(N4CCN([C@@H]5CCCCc6c(Cl)cccc65)CC4)cc3)cc1[N+](=O)[O-])C2` [Compound 119, tert-butyl (R)-(2-(2-(((4-(N-(4-(4-(1-chloro-6,7,8,9-tetrahydro-5H-benzo[7]annulen-5-yl)piperazin-1-yl)benzoyl)sulfamoyl)-2-nitrophenyl)amino)methyl)-7-azaspiro[3.5]nonan-7-yl)ethyl)carbamate], the IC50 was in the range of 20 to 200 nM on BCL-2 and 200 to 2000 nM on BCL-XL. In the assay on DOHH2 cells, this molecule had a GI50 of 50 to 500 nM.
`Cc1ccc(S(=O)(=O)N2CCc3ccccc3C(N3CCN(c4ccc(C(=O)NS(=O)(=O)c5ccc(NCC6CCOCC6)c([N+](=O)[O-])c5)c(Oc5cnc6[nH]ccc6c5)c4)CC3)C2)cc1` (stereo not drawn) [Compound 35, 2-((1H-pyrrolo[2,3-b]pyridin-5-yl)oxy)-N-((3-nitro-4-(((tetrahydro-2H-pyran-4-yl)methyl)amino)phenyl)sulfonyl)-4-(4-(3-tosyl-2,3,4,5-tetrahydro-1H-benzo[d]azepin-1-yl)piperazin-1-yl)benzamide]: the IC50 on BCL-2 lay in the range of 20 to 200 nM; on BCL-XL, 200 to 2000 nM. The molecule also yielded a GI50 with DOHH2 cells of 500 to 5000 nM.
Turning to `O=C(NS(=O)(=O)c1ccc(NCC2CC3(COC3)C2)c([N+](=O)[O-])c1)c1ccc(N2CCN([C@@H]3CCCCc4c(Br)cccc43)CC2)cc1Oc1cnc2[nH]ccc2c1` [Compound 77, (R)-2-((1H-pyrrolo[2,3-b]pyridin-5-yl)oxy)-N-((4-(((2-oxaspiro[3.3]heptan-6-yl)methyl)amino)-3-nitrophenyl)sulfonyl)-4-(4-(1-bromo-6,7,8,9-tetrahydro-5H-benzo[7]annulen-5-yl)piperazin-1-yl)benzamide], the results for the IC50 at BCL-2 and on BCL-XL were below 20 nM and 20 to 200 nM, respectively. In the assay on DOHH2 cells, this molecule gave a GI50 below 50 nM.
In the case of `O=C(NS(=O)(=O)c1ccc(NCCN2CCC3(CC2)COC3)c([N+](=O)[O-])c1)c1ccc(N2CCN(C3CCCCc4c(Cl)cccc43)CC2)cc1Oc1cnc2[nH]ccc2c1` (stereo not drawn) [Compound 42, 2-((1H-pyrrolo[2,3-b]pyridin-5-yl)oxy)-N-((4-((2-(2-oxa-7-azaspiro[3.5]nonan-7-yl)ethyl)amino)-3-nitrophenyl)sulfonyl)-4-(4-(1-chloro-6,7,8,9-tetrahydro-5H-benzo[7]annulen-5-yl)piperazin-1-yl)benzamide], the IC50 at BCL-2 and on BCL-XL was below 20 nM each time. In addition, the GI50 in the assay with DOHH2 cells was 50 to 500 nM.
On to `O=C(NS(=O)(=O)c1ccc(NCC2CCOCC2)c([N+](=O)[O-])c1)c1ccc(N2CCN(C3CCCCc4cc(Cl)ccc43)CC2)cc1Oc1cnc2[nH]ccc2c1` (stereo not drawn) [Compound 25, 2-((1H-pyrrolo[2,3-b]pyridin-5-yl)oxy)-4-(4-(2-chloro-6,7,8,9-tetrahydro-5H-benzo[7]annulen-5-yl)piperazin-1-yl)-N-((3-nitro-4-(((tetrahydro-2H-pyran-4-yl)methyl)amino)phenyl)sulfonyl)benzamide], for which the IC50 at BCL-2 is 20 to 200 nM; on BCL-XL, 200 to 2000 nM. The same molecule registered a GI50 in the assay on DOHH2 cells of 50 to 500 nM.
Turning to `O=C(NS(=O)(=O)c1ccc(NCC2CCOCC2)c([N+](=O)[O-])c1)c1ccc(N2CCN([C@@H]3CCCCc4c(Br)cccc43)CC2)cc1Oc1cnc2[nH]ccc2c1` [Compound 66, (R)-2-((1H-pyrrolo[2,3-b]pyridin-5-yl)oxy)-4-(4-(1-bromo-6,7,8,9-tetrahydro-5H-benzo[7]annulen-5-yl)piperazin-1-yl)-N-((3-nitro-4-(((tetrahydro-2H-pyran-4-yl)methyl)amino)phenyl)sulfonyl)benzamide], the IC50 at BCL-2 is below 20 nM; on BCL-XL, 20 to 200 nM. In the assay on DOHH2 cells, this molecule had a GI50 below 50 nM.
In the same order, the values of `CC(=O)N1CCN(CCNc2ccc(S(=O)(=O)NC(=O)c3ccc(N4CCN([C@@H]5CCCCc6c(Br)cccc65)CC4)cc3Oc3cnc4[nH]ccc4c3)cc2[N+](=O)[O-])CC1` [Compound 65, (R)-2-((1H-pyrrolo[2,3-b]pyridin-5-yl)oxy)-N-((4-((2-(4-acetylpiperazin-1-yl)ethyl)amino)-3-nitrophenyl)sulfonyl)-4-(4-(1-bromo-6,7,8,9-tetrahydro-5H-benzo[7]annulen-5-yl)piperazin-1-yl)benzamide] are below 20 nM, below 20 nM and below 50 nM.
